Measured values reported in ChEMBL document CHEMBL1122789, “Synthesis and biological activity of structural analogues of the anticancer benzophenanthridine alkaloid nitidine chloride” (1984).

How the values were obtained:
[1] = system: B16; assay: Evaluated for anticancer activity in survival tumor system B16 melanocarcinoma at a dose of 200 mg/kg; Number of Tested survived/number of control survived (4/10); type: functional, Mus musculus
[2] = Evaluated for anticancer activity in tumor inhibition system colon 38 tumors at a dose of 100 mg/kg; Number of Tested survived/number of control survived (10/10); type: functional, Mus musculus
[3] = system: MX1; assay: Evaluated for anticancer activity in tumor inhibition system MX-1 breast xenograph at dose 75 mg/kg; type: functional, Homo sapiens
[4] = Evaluated for anticancer activity in tumor inhibition system colon 38 tumors at a dose of 400 mg/kg; Number of Tested survived/number of control survived (10/10); type: functional, Mus musculus
[5] = Evaluated for anticancer activity in tumor inhibition system colon 38 tumor at dose 100 mg/kg; type: functional, Mus musculus
[6] = system: L1210; assay: Evaluated for anticancer activity in survival tumor system L1210 lymphoid leukemia at a dose of 50 mg/kg; Number of Tested survived/number of control survived (6/6); type: functional, Mus musculus
[7] = system: Lewis lung carcinoma cell line; assay: Evaluated for anticancer activity in survival tumor system Lewis lung (LL) carcinoma at dose 50 mg/kg; type: functional, Mus musculus
[8] = system: L1210; assay: Evaluated for anticancer activity in survival tumor system L1210 lymphoid leukemia at a dose of 100 mg/kg; Number of Tested survived/number of control survived (6/6); type: functional, Mus musculus
[9] = system: L1210; assay: Evaluated for anticancer activity in survival tumor system L1210 lymphoid leukemia at a dose of 25 mg/kg; Number of Tested survived/number of control survived (6/6); type: functional, Mus musculus
[10] = system: MX1; assay: Evaluated for anticancer activity in tumor inhibition system MX-1 breast xenograph at a dose of 600 mg/kg; Number of Tested survived/number of control survived (0/6); type: functional, Homo sapiens
[11] = system: Lewis lung carcinoma cell line; assay: Evaluated for anticancer activity in survival tumor system tumor system Lewis lung (LL) carcinoma at a dose of 100 mg/kg; Number of Tested survived/number of control survived (10/10); type: functional, Mus musculus
[12] = system: MX1; assay: Evaluated for anticancer activity in tumor inhibition system MX-1 breast xenograph at a dose of 150 mg/kg; Number of Tested survived/number of control survived (5/6); settings: Homo sapiens
[13] = system: Lewis lung carcinoma cell line; assay: Evaluated for anticancer activity in survival tumor system Lewis lung (LL) carcinoma at a dose of 200 mg/kg, value was reported as weight difference; type: functional, Mus musculus
[14] = Evaluated for anticancer activity in tumor inhibition system colon 38 tumors at a dose of 200 mg/kg; Number of Tested survived/number of control survived (10/10); type: functional, Mus musculus
[15] = system: P388; assay: Evaluated for anticancer activity in survival tumor system P388 lymphocytic leukemia at a dose of 12.5 mg/kg;Number of Tested survived/number of control survived (5/6); type: functional, Mus musculus
[16] = system: P388; assay: Evaluated for anticancer activity in survival tumor system P388 lymphocytic leukemia at a dose of 25 mg/kg;Number of Tested survived/number of control survived (5/6); type: functional, Mus musculus
[17] = Evaluated for anticancer activity in tumor inhibition system colon 38 at a dose of 400 mg/kg, value was reported as weight difference; type: functional, Mus musculus
[18] = system: P388; assay: Evaluated for anticancer activity in survival tumor system P388 lymphocytic leukemia at dose 50 mg/kg; type: functional, Mus musculus
[19] = system: B16; assay: Evaluated for anticancer activity in survival tumor system B16 melanocarcinoma at a dose of 50 mg/kg; number of Tested survived/number of control survived; type: functional, Mus musculus
[20] = system: Lewis lung carcinoma cell line; assay: Evaluated for anticancer activity in survival tumor system Lewis lung (LL) carcinoma at a dose of 100 mg/kg, value was reported as weight difference; type: functional, Mus musculus
[21] = system: B16; assay: Evaluated for anticancer activity in survival tumor system B16 melanocarcinoma at a dose of 100 mg/kg; Number of Tested survived/number of control survived (7/10); type: functional, Mus musculus
[22] = Evaluated for anticancer activity in tumor inhibition system colon 38 at a dose of 200 mg/kg, value was reported as weight difference; type: functional, Mus musculus
[23] = system: B16; assay: Evaluated for anticancer activity in survival tumor system B16 melanocarcinoma at dose 50 mg/kg; type: functional, Mus musculus
[24] = system: MX1; assay: Evaluated for anticancer activity in tumor inhibition system MX-1 breast xenograph at a dose of 75 mg/kg; Number of Tested survived/number of control survived (4/6); type: functional, Homo sapiens
[25] = system: Lewis lung carcinoma cell line; assay: Evaluated for anticancer activity in survival tumor system Lewis lung (LL) carcinoma at a dose of 12.5 mg/kg, value was reported as weight difference; type: functional, Mus musculus
[26] = system: L1210; assay: Evaluated for anticancer activity in survival tumor system L1210 lymphoid leukemia at a dose of 3.125 mg/kg, value was reported as weight difference; type: functional, Mus musculus
[27] = system: B16; assay: Evaluated for anticancer activity in survival tumor system B16 melanocarcinoma at dose 25 mg/kg; type: functional, Mus musculus
[28] = system: Lewis lung carcinoma cell line; assay: Evaluated for anticancer activity in survival tumor system Lewis lung (LL) carcinoma at a dose of 50 mg/kg, value was reported as weight difference; type: functional, Mus musculus
[29] = system: Lewis lung carcinoma cell line; assay: Evaluated for anticancer activity in survival tumor system Lewis lung (LL) carcinoma at dose 25 mg/kg; type: functional, Mus musculus
[30] = system: L1210; assay: Evaluated for anticancer activity in survival tumor system L1210 lymphoid leukemia at a dose of 12.5 mg/kg, value was reported as weight difference; type: functional, Mus musculus
[31] = system: B16; assay: Evaluated for anticancer activity in survival tumor system B16 melanocarcinoma at a dose of 100 mg/kg, value was reported as weight difference; type: functional, Mus musculus
[32] = system: Lewis lung carcinoma cell line; assay: Evaluated for anticancer activity in survival tumor system Lewis lung (LL) carcinoma at dose 12.5 mg/kg; type: functional, Mus musculus
[33] = system: Lewis lung carcinoma cell line; assay: Evaluated for anticancer activity in survival tumor system Lewis lung (LL) carcinoma at a dose of 25 mg/kg; number of Tested survived/number of control survived; type: functional, Mus musculus
[34] = system: B16; assay: Evaluated for anticancer activity in survival tumor system B16 melanocarcinoma at a dose of 12.5 mg/kg, value was reported as weight difference; type: functional, Mus musculus
[35] = system: P388; assay: Evaluated for anticancer activity in survival tumor system P388 lymphocytic leukemia at dose 100 mg/kg; type: functional, Mus musculus
[36] = system: L1210; assay: Evaluated for anticancer activity in survival tumor system L1210 lymphoid leukemia at a dose of 25 mg/kg, value was reported as weight difference; type: functional, Mus musculus
[37] = system: P388; assay: Evaluated for anticancer activity in survival tumor system P388 lymphocytic leukemia at a dose of 25 mg/kg, value was reported as weight difference; type: functional, Mus musculus
[38] = system: B16; assay: Evaluated for anticancer activity in survival tumor system B16 melanocarcinoma at a dose of 6.25 mg/kg, value was reported as weight difference; type: functional, Mus musculus
[39] = system: L1210; assay: Evaluated for anticancer activity in survival tumor system L1210 lymphoid leukemia at dose 3.12 mg/kg; type: functional, Mus musculus
[40] = system: MX1; assay: Evaluated for anticancer activity in tumor inhibition system MX-1 breast xenograph at a dose of 150mg/kg, value was reported as weight difference; type: functional, Homo sapiens
[41] = system: L1210; assay: Evaluated for anticancer activity in survival tumor system L1210 lymphoid leukemia at dose 6.25 mg/kg; type: functional, Mus musculus
[42] = system: B16; assay: Evaluated for anticancer activity in survival tumor system B16 melanocarcinoma at a dose of 25 mg/kg; Number of Tested survived/number of control survived (10/10); type: functional, Mus musculus
[43] = system: P388; assay: Evaluated for anticancer activity in survival tumor system P388 lymphocytic leukemia at a dose of 200 mg/kg; Number of Tested survived/number of control survived (0/6); type: functional, Mus musculus
[44] = system: P388; assay: Evaluated for anticancer activity in survival tumor system P388 lymphocytic leukemia at dose 12.5 mg/kg; type: functional, Mus musculus

SMILES: COc1cc2c[n+](C)c3c(c2cc1OC)Cc1cc2c(cc1-3)OCO2.[Cl-]
- Survival [1]: 4
- Survival [2]: 10
- T/C [3]: 102%
- Survival [4]: 10
- T/C [5]: 107%
- Survival [6]: 6
- T/C [7]: 119%
- Survival [8]: 6
- Survival [9]: 6
- Survival [10]: 0
- Survival [11]: 10
- Survival [12]: 5
- Weight change [13]: -4.9
- Survival [14]: 10
- Survival [15]: 5
- Survival [16]: 5
- Weight change [17]: -6.2
- T/C [18]: 149%
- Survival [19]: 10
- Weight change [20]: -3.8
- Survival [21]: 7
- Weight change [22]: -4.3
- T/C [23]: 147%
- Survival [24]: 4
- Weight change [25]: -0.9
- Weight change [26]: -1.9
- T/C [27]: 139%
- Weight change [28]: -2.6
- T/C [29]: 114%
- Weight change [30]: -2.6
- Weight change [31]: -4.6
- T/C [32]: 97%
- Survival [33]: 10
- Weight change [34]: -1
- T/C [35]: 168%
- Weight change [36]: -5.4
- Weight change [37]: -3.6
- Weight change [38]: -0.5
- T/C [39]: 129%
- Weight change [40]: -6
- T/C [41]: 154%
- Survival [42]: 10
- Survival [43]: 0
- T/C [44]: 134%
